For assay [1] the following is noted: Ala scan of an amylin analogue; cited from earlier work. An excerpt:
Of the residues impacting on peptide function only R126 contributed to amylin or CGRP function but not that of CT. R126 in the CTR/RAMP complex sits in close proximity to W84 (RAMP1) that may form an interaction with the peptide C-terminus for amylin and CGRP, and thus may contribute to the orientation of the peptide C-terminus to allow this interaction. The net contribution of the RAMP interaction is a reordering of residues in loop 5 that facilitates the peptide turn of amylin and CGRP and interaction of the C-terminus with the W84 of the RAMP, with reorientation of loop 4 residues facilitat ...

The subject of assay [2] is CT(a) receptor ECD alanine mutants. The assay is described as follows: 125I-hCT radioligand binding, CT(a) mutants. Also noted: species or system human. Particulars: Ala mutation of W79, F99, D101, F102, H121, W128 and Y131; ~50 pM, 1 h, 37 °C, whole Cos-7 cells. From the text: transfected with CT(a). […] Data are
binding observed for each peptide.
For C, D and E statistical

Where no end group is shown, it is not given here.

The values below come from publication PMC4869360, “An allosteric role for receptor activity-modifying proteins in defining GPCR pharmacology” (Cell Discovery, 2016).

Turning to “T30: amylin analogue with T30 substitution, from Ala scan of ref 34 (KCNTATCATQRLANFLVHSSNNFGAILSSANVGSNTY; ends and bridges not checked; cysteine pairing not given here; UniProt P10997 34-70, looked up, variant T30A)”, the binding entry in assay [1] is “abolishing binding”. In the case of “V32: amylin analogue with V32 substitution, from Ala scan of ref 34 (KCNTATCATQRLANFLVHSSNNFGAILSSTNAGSNTY; ends and bridges not checked; cysteine pairing not given here; UniProt P10997 34-70, looked up, variant V32A)”, in assay [1], the binding entry is reported as “abolishing binding”. On to “^125I-hCT: hCT radioiodinated with iodination bead, purified by reverse-phase HPLC”, for which the 125I-hCT binding entry in assay [2] was “significantly reduced”.
